According to article PMC8400257, “2-Phenoxy-3-Trichloromethylquinoxalines Are Antiplasmodial Derivatives with Activity against the Apicoplast of Plasmodium falciparum” (Pharmaceuticals, 2021):
“Also recorded” adds a separate entry of the source.

Legend:
[1] = system: HepG2 cell line; assay: In vitro alkaline comet assay; type: cell-based, human
Procedure: The human hepatocarcinoma cell line HepG2 was obtained from the American Type Culture Collection (ATCC, ref. HB-8065). Cells were cultured in Eagle’s minimum essential medium (EMEM, ref. ATCC®® 30-2003TM) and supplemented with 10% heat-inactivated foetal bovine serum, 100 U/mL penicillin, and 0.1 mg/mL streptomycin (all from Gibco). Cells were maintained at 37 °C in a humidified atmosphere with 5% CO2 and used in passage number 11 to 15. Two concentrations of the compound 3i (3.2 and 16 µM) were tested at 2 different times of incubation (2 and 72 h). Briefly, HepG2 cells were seeded at 1.13 × 10^5 cells/mL in 6-well plates (3 mL of cell suspension per well) and incubated at 37 °C in a humidified atmosphere with 5% CO2. After 24 and 94 h of incubation, cells were treated with different concentrations of the compound or the vehicle (0.5% dimethylsulfoxide, DMSO) for 72 and 2 h, respectively. Additionally, in the 2 h treatment plate, cells in an additional well were treated with 1 mM MMS as positive control for the comet assay. After treatment, medium was removed from the wells and cells were washed with phosphate buffered saline (PBS). Finally, cells were trypsinized and trypsin was neutralized with fresh medium. From this point, cells were kept ice-cold to avoid DNA repair.
The standard alkaline comet assay was employed for the detection of DNA strand breaks (SBs) and alkali-labile sites (ALS) in cells treated with molecule 3i. Trypsinized HepG2 cells were centrifuged at 125 × g for 5 min at 4 °C and resuspended in cold PBS at 1 x 10^6 cells/mL. For the preparation of the agarose gels, 30 µL of cell suspension were mixed with 140 µL of 1% low melting point agarose in PBS at 37 °C and 2 aliquots of 70 µL of cell/agarose mixture were placed on agarose-precoated microscope slides. Each droplet was covered with a 20 × 20 mm coverslip and, after 2–3 min on a cold metal plate, the coverslips were removed. Then, slides were immersed in lysis solution (2.5 M NaCl, 0.1 M Na2EDTA, 0.01 M Tris base, pH 10, and 1% Triton X-100) at 4 °C for 1 h. After lysis, slides were transferred to the electrophoresis tank and incubated for 40 min at 4 °C in the electrophoresis solution (0.3 M NaOH, 1 mM Na2EDTA, pH > 13) to allow DNA unwinding. After that, electrophoresis was carried out at 1 V/cm for 20 min (4 °C). Then, gels were neutralized and washed by immersing the slides in PBS for 10 min and distilled water for another 10 min (both at 4 °C). Gels were then air-dried at room temperature. Comets were stained by adding 30 µL of […] of 4,6- diamidino-2-phenylindole (DAPI) on top of each gel and placing 22 × 22 mm coverslips on top. Slides were incubated with DAPI at room temperature for 30 min before the analysis. The semi-automated image analysis system Comet Assay IV (Instem, Stone, UK) was used to evaluate 50 comets per gel (i.e., 100 comets/condition). The percentage of DNA in tail was the descriptor used for each comet.
The median percentage of DNA in tail for 50 comets was calculated for each of the duplicate gels in each experiment, and the mean of the two medians were then calculated. The mean percentage of DNA in tail of 3 independent experiments and the standard deviation (SD) were calculated.

[2] = In vitro cytotoxicity evaluation HepG2 (MTT); type: cell-based, human; conditions: human, CC50 HepG2 (µM) ± SD
Procedure: For all molecules, the selectivity index was calculated as following SI = CC50/EC50.
Triplicate assays were performed for each sample. Each plate-well was then microscopically examined for possible precipitate formation before the medium was aspirated from the wells. Next, 100 µL of MTT (3-(4,5-dimethyl-2-thiazolyl)-2,5-diphenyl -2H-tetrazolium bromide) solution (0.5 mg/mL in medium without FBS) was added to each well. […] After this time, the MTT solution was removed and DMSO (100 μL) was added to dissolve the resulting blue formazan crystals. Plates were shaken vigorously (700 rpm) for 10 min. The absorbance was measured at 570 nm with 630 nm as reference wavelength using a BIO-TEK ELx808 Absorbance Microplate Reader (LabX, Midland, ON, Canada). DMSO was used as blank and doxorubicin (purchased from Sigma Aldrich) as positive control. Cell viability was calculated as a percentage of control (cells incubated without compound). […] CC50 values to represent the mean value calculated from three independent experiments.

O=[N+]([O-])c1ccc(Oc2nc3ccccc3nc2C(Cl)(Cl)Cl)cc1 [3i, 2-(4-Nitrophenoxy)-3-trichloromethylquinoxaline]
In vitro comet assay: DNA strand breaks or alkali labile sites (genotoxicity) ([1]; HepG2, 3.2 and 16 µM, short (2 h) or long (72 h) exposition): not genotoxic; also recorded: did not induce DNA strand breaks or alkali labile sites
In vitro comet assay result ([1]; HepG2, 2 h, 3.2 µM): negative
In vitro comet assay result ([1]; HepG2, 2 h, 16 µM): negative
In vitro comet assay result ([1]; HepG2, 72 h, 3.2 µM): negative
In vitro comet assay result ([1]; HepG2, 72 h, 16 µM): negative
CC50 at 72 h [2]: 32 ± 6.1 µM
